# Assays:
# [1] = target: Gppcp-bound recombinant K-Ras4B G12C mutant protein (amino acids 1-169, C51S/C80L/C118S) (Homo sapiens, UniProt P01116, C118S/C51S/C80L/G12C); test: KRASG12C binding assay (LC-MS, compound binding rate); settings: test compound final concentration 0.5 μM, 25° C., 1 hour
# Protocol: As test compounds for the KRASG12C binding assay, the compounds obtained in the “Preparation of Compounds” section were used. Sample solutions each containing a test compound were prepared in the form of a 10 mM DMSO solution.
# Gppcp-bound recombinant K-Ras4B G12C mutant protein (amino acids 1-169, C51S/C80L/C118S, SEQ ID NO:1) was diluted with a buffer (1×TBS, 0.1 mM TCEP, 0.25 mM MgCl2, 50 μM Gppcp) to prepare a 50 nM protein solution. K-Ras4B is the major splicing variant of K-Ras. Amino acid sequence of residues 1 to 150 including the compounds' binding region of K-Ras4B is exactly same as that of K-Ras4A, the other splicing variant (Oncotarget. 2016 Jul. 19; 7(29): 46717-46733). A sample solution containing 10 mM test compound was diluted ten-fold with DMSO to make a 1 mM sample solution, and then diluted twenty-fold with DMSO to make a 50 μM sample solution. 1 μL of a 50 μM sample solution was added to 100 μL of a 50 nM protein solution to adjust the final concentration of a test compound to be 0.5 μM in the mixture. The mixtures were stored in an incubator at 25° C. for 1 hour, and 10 μL of a 1×TBS solution containing 2% formic acid was added to stop the reaction, followed by LC-MS measurement. LC-MS measurement was performed using Xevo G2-S Q-Tof manufactured by Waters, and reverse-phase chromatography was performed with a desalting column. A mass spectrum of positive ions was obtained by electrospray. For a mass spectrum, a spectrum of polyvalent ions was collectively converted to a molecular weight by using OpenLynx software by the MaxEnt technique, and a compound binding rate was calculated from the ratio of the signal intensity of a peak that corresponds to the molecular weight of the protein to the signal intensity of a peak that corresponds to the molecular weight of the protein conjugated with the compound.
# The binding assay of the test compounds was conducted at a final concentration of 0.5 μM. A binding rate of 80% or more is rated “A”, a binding rate of 60% or more and less than 80% is rated “B”, a binding rate of 40% or more and less than 60% is rated “C”, a binding rate of 20% or more and less than 40% is rated “D”, and a binding rate of less than 20% is rated “E”. N.D.=not determined. Binding rate % is the ratio of KRAS signal intensity at the molecular weight of one molecule adduct to the sum of all the KRAS signal intensity (unbound form and adducts) in mass spectrum. Thus, binding rate 100% means that only the one molecule adduct was observed without any unbound KRAS. The following tables show the results.
# [2] = target: T1, interaction between recombinant K-Ras4B G12C mutant protein and cRAF RAS-binding domain (cRAF-RBD) (Homo sapiens, UniProt P01116, G12C); test: Inhibitory activity on interaction between KRAS G12C and cRAF (Alpha technology); format: biochemical; settings: GMPPNP-bound KRAS G12C incubated with compound at 25° C. for 1 hour, then cRAF-RBD; Alpha signal
# T1 construct: made in house; host or cells: E. coli
# Protocol: Interaction between recombinant K-Ras4B G12C mutant protein (amino acids 1-169, SEQ ID NO:2) and cRAF RAS-binding domain (cRAF-RBD, amino acids 50-132, Jena Biosciences GmbH) was measured using Alpha technology (PerkinElmer Inc.).
# Recombinant KRAS G12C protein with an N-terminal His-tag was expressed in E. coli and purified by affinity chromatography. To prepare GTP-bound form and GDP-bound form of KRAS G12C protein. 50 μM KRAS G12C protein was incubated with 1 mM GMPPNP (Guanosine-5′-[(β,γ)-imido]triphosphate. Tetralithium salt)(Jena Bioscience GmbH) and 1 mM GDP, respectively, in a loading buffer (20 mM Tris-HCl (pH 7.5), 50 mM NaCl, 1 mM DTT and 2.5 mM EDTA) for 1 hour on ice. After the incubation, MgCl2 was added to a final concentration of 10 mM, followed by incubation at room temperature for 30 minutes. The mixture was allowed to pass through a NAP-5 column to remove free nucleotides and purified, and the resultant nucleotide-bound KRAS G12C protein was used for compound evaluation.
# For the measurement of the inhibitory activity of compounds on interaction between KRAS G12C and cRAF-RBD, GMPPNP-bound KRAS G12C protein was incubated with various concentrations of compound in a reaction buffer (20 mM Tris-HCl (pH 7.5), 100 mM NaCl, 1 mM MgCl2, 1 mM TCEP. 0.1% Tween 20) at 25° C. for 1 hour. After the incubation, recombinant cRAF-RBD and Alpha detection reagents were added and incubated at room temperature for 1.5 hours for binding. Interaction of KRAS G12C and cRAF-RBD was monitored by measuring Alpha signal. Inhibition % was calculated using the signal from the reaction without test compound (DMSO control) as 0% inhibition and the signal from the reaction using GDP-bound KRAS G12C in place of GMPPNP-bound KRAS G12C as 100% inhibition. IC50 values were calculated from dose titration curve using curve fitting by XLfit software (IDBS). The following tables show the results.
# [3] = tested on: MIA PaCa-2 cells; test: Growth inhibition activity on KRAS-G12C mutant cell line (MIA PaCa-2), CellTiter-Glo 3D; format: cell-based, human; settings: MIA PaCa-2, 3-day culture with compound
# Protocol: MIA PaCa-2 cells (given by Sumitomo Dainippon Pharma Co., Ltd.), which are a KRAS-G12C mutant human pancreas cancer cell line, were suspended in a 10% fetal bovine serum-containing RPMI1640 medium (manufactured by Fujifilm Wako Pure Chemical Corporation.). The cell suspension was seeded into each well of a 384-well U bottom microplate and cultured in an incubator containing 5% CO2 gas at 37° C. for 1 day. The compounds obtained in the “Preparation of Compounds” section were used as test compounds and were dissolved in DMSO, respectively, and each test compound was diluted with DMSO to give a concentration 500 times the final concentration. The resultant solution of the test compound in DMSO was diluted with the medium used for suspending cells and added to each well of the cell-culture plate to give a DMSO final concentration of 0.2%, followed by culture in an incubator containing 5% CO2 gas at 37° C. for another 3 days. The cell count after 3-day culture in the presence of the test compound was measured using CellTiter-Glo 3D Reagent (manufactured by Promega Corporation). All wells were added with CellTiter-Glo 3D Reagent and mixed for 10 minutes. 30 minutes after mixing, luminescence was measured by a plate reader. The growth inhibition rate was calculated from the following equation, and the concentration of the test compound at which 50/o inhibition was achieved (IC50 (nM)) was determined. The following tables show the results.
# [formula] • T: the emission intensity in a well into which a test compound was added. • C: the emission intensity in a well into which a test compound was not added.
smiles,measurement,setting,value
"CO[C@H]1CC[C@H](NC/C=C/C(=O)Nc2c(F)cc(C(=O)c3ccc4c(-c5c(Cl)cc6c(ncn6C)c5Cl)cccn34)cc2F)CC1 (single isomer, unassigned) [Example 15-1, (E)-N-(4-(8-(4,6-dichloro-1-methyl-1H-benzo[d]imidazol-5-yl)indolizine-3-carbonyl)-2,6-difluorophenyl)-4-(((1r,4r)-4-methoxycyclohexyl)amino)but-2-enamide]",binding rate,[1],A (A binding rate of 80% or more is rated “A”)
same,IC50,[2],42 nM
same,IC50,[3],46 nM
"CO[C@H]1CC[C@H](NC/C=C/C(=O)Nc2c(F)cc(C(=O)c3ccc4c(-c5c(Cl)cc6c(ncn6C)c5Cl)cccn34)cc2F)CC1 (single isomer, unassigned) [Example 15-2, (E)-N-(4-(8-(4,6-dichloro-1-methyl-1H-benzo[d]imidazol-5-yl)indolizine-3-carbonyl)-2,6-difluorophenyl)-4-(((1r,4r)-4-methoxycyclohexyl)amino)but-2-enamide]",binding rate,[1],A (A binding rate of 80% or more is rated “A”)
same,IC50,[2],190 nM
same,IC50,[3],220 nM
"Cc1cc2c(nc(C)n2C)c(Cl)c1-c1cccn2c(C(=O)c3cc(F)c(NC(=O)/C=C/CNC(C)(C)C)c(F)c3)ccc12 (single isomer, unassigned) [Example 18-1, (E)-4-(tert-butylamino)-N-(4-(8-(4-chloro-1,2,6-trimethyl-1H-benzo[d]imidazol-5-yl)indolizine-3-carbonyl)-2,6-difluorophenyl)but-2-enamide]",binding rate,[1],A (A binding rate of 80% or more is rated “A”)
same,IC50,[2],29 nM
same,IC50,[3],29 nM
"Cc1cc2c(nc(C)n2C)c(Cl)c1-c1cccn2c(C(=O)c3cc(F)c(NC(=O)/C=C/CNC(C)(C)C)c(F)c3)ccc12 (single isomer, unassigned) [Example 18-2, (E)-4-(tert-butylamino)-N-(4-(8-(4-chloro-1,2,6-trimethyl-1H-benzo[d]imidazol-5-yl)indolizine-3-carbonyl)-2,6-difluorophenyl)but-2-enamide]",binding rate,[1],A (A binding rate of 80% or more is rated “A”)
same,IC50,[2],220 nM
same,IC50,[3],230 nM
"CO[C@H]1CC[C@H](NC/C=C/C(=O)Nc2c(F)cc(C(=O)c3ccc4c(-c5c(C)cc6c(nc(C)n6C)c5Cl)cccn34)cc2F)CC1 (single isomer, unassigned) [Example 19-1, (E)-N-(4-(8-(4-chloro-1,2,6-trimethyl-1H-benzo[d]imidazol-5-yl)indolizine-3-carbonyl)-2,6-difluorophenyl)-4-(((1r,4r)-4-methoxycyclohexyl)amino)but-2-enamide]",binding rate,[1],A (A binding rate of 80% or more is rated “A”)
same,IC50,[2],20 nM
same,IC50,[3],47 nM
"CO[C@H]1CC[C@H](NC/C=C/C(=O)Nc2c(F)cc(C(=O)c3ccc4c(-c5c(C)cc6c(nc(C)n6C)c5Cl)cccn34)cc2F)CC1 (single isomer, unassigned) [Example 19-2, (E)-N-(4-(8-(4-chloro-1,2,6-trimethyl-1H-benzo[d]imidazol-5-yl)indolizine-3-carbonyl)-2,6-difluorophenyl)-4-(((1r,4r)-4-methoxycyclohexyl)amino)but-2-enamide]",binding rate,[1],A (A binding rate of 80% or more is rated “A”)
same,IC50,[2],140 nM
same,IC50,[3],160 nM
"Cn1cnc2c(Cl)c(-c3cccn4c(C(=O)c5cc(F)c(NC(=O)/C=C/CNC(C)(C)C)c(F)c5)ccc34)c(Cl)cc21 (single isomer, unassigned) [Example 20-1, (E)-4-(tert-butylamino)-N-(4-(8-(4,6-dichloro-1-methyl-1H-benzo[d]imidazol-5-yl)indolizine-3-carbonyl)-2,6-difluorophenyl)but-2-enamide]",binding rate,[1],A (A binding rate of 80% or more is rated “A”)
same,IC50,[2],200 nM
same,IC50,[3],200 nM
"Cn1cnc2c(Cl)c(-c3cccn4c(C(=O)c5cc(F)c(NC(=O)/C=C/CNC(C)(C)C)c(F)c5)ccc34)c(Cl)cc21 (single isomer, unassigned) [Example 20-2, (E)-4-(tert-butylamino)-N-(4-(8-(4,6-dichloro-1-methyl-1H-benzo[d]imidazol-5-yl)indolizine-3-carbonyl)-2,6-difluorophenyl)but-2-enamide]",binding rate,[1],A (A binding rate of 80% or more is rated “A”)
same,IC50,[2],33 nM
same,IC50,[3],59 nM
"CCc1cc2c(nc(C)n2C)c(Cl)c1-c1cccn2c(C(=O)c3cc(F)c(NC(=O)/C=C/CN[C@H]4CC[C@H](OC)CC4)c(F)c3)ccc12 (single isomer, unassigned) [Example 22-1, (E)-N-(4-(8-(4-chloro-6-ethyl-1,2-dimethyl-1H-benzo[d]imidazol-5-yl)indolizine-3-carbonyl)-2,6-difluorophenyl)-4-(((1r,4r)-4-methoxycyclohexyl)amino)but-2-enamide]",binding rate,[1],A (A binding rate of 80% or more is rated “A”)
same,IC50,[2],23 nM
same,IC50,[3],72 nM
"CCc1cc2c(nc(C)n2C)c(Cl)c1-c1cccn2c(C(=O)c3cc(F)c(NC(=O)/C=C/CN[C@H]4CC[C@H](OC)CC4)c(F)c3)ccc12 (single isomer, unassigned) [Example 22-2, (E)-N-(4-(8-(4-chloro-6-ethyl-1,2-dimethyl-1H-benzo[d]imidazol-5-yl)indolizine-3-carbonyl)-2,6-difluorophenyl)-4-(((1r,4r)-4-methoxycyclohexyl)amino)but-2-enamide]",binding rate,[1],A (A binding rate of 80% or more is rated “A”)
same,IC50,[2],110 nM
same,IC50,[3],410 nM

# Source: patent publication US20240246968A1, “SMALL MOLECULE INHIBITORS OF KRAS G12C MUTANT” (Merck Sharp & Dohme LLC, priority 2021, published 2024)
